Results taken from US7211561B2, “Method for inducing selective cell death of malignant cells by activation of calcium-activated potassium channels (KCa)” (Cedars-Sinai Medical Center, priority 2001, dated 2007).

Columns and labels:
[1] = tested on: 9L rat glioma cells; test: Cell proliferation assay (WST-1, OD 450 nm); assay type: cell-based; conditions: 1–100 μg/mL, 4 hours, dose-dependent (FIG. 1)
Method: (§1) Primary cell lines were prepared from human gliomas (glioblastoma multiforme [GBM] or astrocytoma) or established rat glioma cell lines (RG2, C6 and 9L) were used. Cultured human normal cell lines, brain microvessel endothelial cells (HBMVEC), or fetal astrocytes were used.
(§2) Cells (5×10^4 cells) were cultured in each well of 96-well microtiter culture plates and were allowed to achieve confluency to form a monolayer of cells in each well. For dose response studies cells were incubated with different concentrations (1–100 μg/mL) of NS-1619 or minoxidil sulfate for 4 hours at 37° C. in a CO2 (5%) incubator. Cells washed twice carefully with respective medium, and allowed to incubate overnight at 37° C. under 5% CO2. The following day, cells were incubated with WST-1 reagent (Boehringer Mannheim) at 37° C. in a CO2 (5%) incubator for 60–90 minutes, and optical density at 450 nm was measured with a 96-well plate reader. The magnitude of OD indicated the number of viable cells, greater the OD, higher the number of viable cells, correlated a standard curve of cell numbers.

[2] = tested on: C6 rat glioma cells; test: Cell proliferation assay (WST-1, OD 450 nm); assay type: cell-based; conditions: 1–100 μg/mL, 4 hours, dose-dependent (FIG. 1)
Method: as §1, §2

[3] = tested on: RG2 rat glioma cells; test: Cell proliferation assay (WST-1, OD 450 nm); assay type: cell-based
Method: as §1, §2

[4] = tested on: human normal brain microvessel endothelial cells (HBMVEC); test: Cell proliferation assay (WST-1, OD 450 nm); assay type: cell-based
Method: as §1, §2

[5] = tested on: human normal fetal astrocytes (HFA); test: Cell proliferation assay (WST-1, OD 450 nm); assay type: cell-based
Method: as §1, §2

[6] = tested on: primary human GBM glioma cell line; test: Cell proliferation assay (WST-1, OD 450 nm); assay type: cell-based
Method: as §1, §2

[7] = tested on: primary human astrocytoma cell line; test: Cell proliferation assay (WST-1, OD 450 nm); assay type: cell-based; conditions: 1–100 μg/mL, 4 hours, dose-dependent (FIG. 2)
Method: as §1, §2

[8] = tested on: U87 human glioma cells; test: In vitro apoptosis assay (Annexin V-FITC/propidium iodide, FACS); assay type: cell-based; conditions: 50 μg/mL
Method: (§3) Human glioma cells (U-87) and HBMVECells were seeded into a 25-mL tissue-culture flask. After 24 h (about 60–70% confluencey), cells were treated with either […] (50 or 100 micrograms/mL) or staurosporine (positive control; 5 μM), a known inducer of apoptosis (Tamaoki, T., et al., Staurosporine, a potent inhibitor of phospholipid/Ca^++ dependent protein kinase, Biochem. Biophys. Res. Commun. 135: 397–402 [1986]; Matsumoto, H., and Sasaki, Y., Staurosporine, a protein kinase C inhibitor interferes with proliferation of arterial smooth muscle cells, Biochem. Biophys. Res. Commun. 158:105–109 [1989]). U-87 cells were returned to the CO2 incubator and incubated overnight. The following day, cells were washed twice with fresh growth medium and cells prepared for FACS analysis as described hereinbelow.
The changes in plasma membrane are one of the earliest events in cell death. In apoptotic cells the membrane phospholipid phosphatidylserine (PS) is translocated from the inner to the outer leaflet of the cell membrane in the early phases of apoptosis. Annexin V is a Ca^2+-dependent, phospholipid-binding protein that binds to PS with high affinity. Consequently, Annexin V (PharMingen) conjugated to a label, such as fluorescein isothiocyanate (FITC) or biotin, serves as a sensitive probe for flow cytometry analysis of cells that are undergoing apoptosis. […] (PharMingen; Vermes, I. et al., A novel assay for apoptosis. Flow cytometric detection of phosphatidylserine expression on early apoptotic cells using fluorescein labelled Annexin V, J. Immunol. Meth. 184:39–51 [1995]). Concurrently, propidium iodide is typically used as a standard flow cytometric viability probe, because the intact cell membranes of viable cells exclude propidium iodide, whereas the cell membranes of dead and damaged cells are permeable to propidium iodide. Cells that stain positive for Annexin V and negative for propidium iodide are undergoing apoptosis; cells that stain positive for both Annexin V and propidium iodide are either at the end stage of apoptosis, are undergoing necrosis, or are already dead; and cells that stain negative for both Annexin V-biotin and propidium iodide are alive and not undergoing measurable apoptosis. Briefly, the cells were washed twice with cold PBS and then resuspended in 1× binding buffer (10 mM HEPES/NaOH, pH 7.4, 140 mM NaCl, 2.5 mM CaCl2; 4° C.) at a concentration of about 1×10^6 cells/mL. A 100-μL aliquot of cell suspension was transferred to 5-mL culture tubes, and 2.5 μL of Annexin V-FITC and 2.5-μL of propidium iodide (PharMingen) were added to each tube. The cell suspensions were gently mixed and incubated for 15 min at room temperature in the dark, after which 400 μL of binding buffer was added to each tube of cells. […]

[9] = tested on: malignant 9L cells; test: as above; assay type: cell-based, rat; conditions: 50 μg/mL (FIG. 6E)
Description: (§4) The changes in plasma membrane are one of the earliest events in cell death. In apoptotic cells the membrane phospholipid phosphatidylserine (PS) is translocated from the inner to the outer leaflet of the cell membrane in the early phases of apoptosis. Annexin V is a Ca^2+-dependent, phospholipid-binding protein that binds to PS with high affinity. Consequently, Annexin V (PharMingen) conjugated to a label, such as fluorescein isothiocyanate (FITC) or biotin, serves as a sensitive probe for flow cytometry analysis of cells that are undergoing apoptosis. […] (PharMingen; Vermes, I. et al., A novel assay for apoptosis. Flow cytometric detection of phosphatidylserine expression on early apoptotic cells using fluorescein labelled Annexin V, J. Immunol. Meth. 184:39–51 [1995]). Concurrently, propidium iodide is typically used as a standard flow cytometric viability probe, because the intact cell membranes of viable cells exclude propidium iodide, whereas the cell membranes of dead and damaged cells are permeable to propidium iodide. Cells that stain positive for Annexin V and negative for propidium iodide are undergoing apoptosis; cells that stain positive for both Annexin V and propidium iodide are either at the end stage of apoptosis, are undergoing necrosis, or are already dead; and cells that stain negative for both Annexin V-biotin and propidium iodide are alive and not undergoing measurable apoptosis. Briefly, the cells were washed twice with cold PBS and then resuspended in 1× binding buffer (10 mM HEPES/NaOH, pH 7.4, 140 mM NaCl, 2.5 mM CaCl2; 4° C.) at a concentration of about 1×10^6 cells/mL. A 100-μL aliquot of cell suspension was transferred to 5-mL culture tubes, and 2.5 μL of Annexin V-FITC and 2.5-μL of propidium iodide (PharMingen) were added to each tube. The cell suspensions were gently mixed and incubated for 15 min at room temperature in the dark, after which 400 μL of binding buffer was added to each tube of cells. The cells were then washed once with 1×binding buffer. Analysis by flow cytometry was then conducted immediately, and no later than within one hour. The resulting analytic FACS graphs were typically divided into four quadrants wherein the upper right (UR) quadrant represented the number of necrotic cells; the lower left (LL) quadrant represented the number of viable cells; the lower right (LR) quadrant represented the number of apoptotic cells; and the upper left (UL) represented cells of an intermediate category, which generally represents cell debris and DNA fragments. The percentage of gated events in each quadrant was used to determine the total percentage of apoptotic and necrotic cells in each cell suspension.

[10] = tested on: malignant C6 cells; test: as above; assay type: cell-based, rat; conditions: 50 μg/mL (FIG. 6C)
Description: as §4

[11] = tested on: malignant RG2 cells; test: as above; assay type: cell-based, rat; conditions: 50 μg/mL (FIG. 6A)
Description: as §4

[12] = tested on: primary human GBM cells; test: as above; assay type: cell-based; conditions: 50 μg/mL (FIG. 7A)
Description: The changes in plasma membrane are one of the earliest events in cell death. In apoptotic cells the membrane phospholipid phosphatidylserine (PS) is translocated from the inner to the outer leaflet of the cell membrane in the early phases of apoptosis. Annexin V is a Ca^2+-dependent, phospholipid-binding protein that binds to PS with high affinity. Consequently, Annexin V (PharMingen) conjugated to a label, such as fluorescein isothiocyanate (FITC) or biotin, serves as a sensitive probe for flow cytometry analysis of cells that are undergoing apoptosis. […] (PharMingen; Vermes, I. et al., A novel assay for apoptosis. Flow cytometric detection of phosphatidylserine expression on early apoptotic cells using fluorescein labelled Annexin V, J. Immunol. Meth. 184:39–51 [1995]). Concurrently, propidium iodide is typically used as a standard flow cytometric viability probe, because the intact cell membranes of viable cells exclude propidium iodide, whereas the cell membranes of dead and damaged cells are permeable to propidium iodide. […]

[13] = tested on: non-malignant HBMVEC; test: as above; assay type: cell-based, human; conditions: 50 μg/mL (FIG. 7C)
Method: as §3
The changes in plasma membrane are one of the earliest events in cell death. In apoptotic cells the membrane phospholipid phosphatidylserine (PS) is translocated from the inner to the outer leaflet of the cell membrane in the early phases of apoptosis. Annexin V is a Ca^2+-dependent, phospholipid-binding protein that binds to PS with high affinity. Consequently, Annexin V (PharMingen) conjugated to a label, such as fluorescein isothiocyanate (FITC) or biotin, serves as a sensitive probe for flow cytometry analysis of cells that are undergoing apoptosis. […]

[14] = tested on: implanted RG2 glioma tumor in Wistar rats; test: In vivo apoptosis, intracarotid infusion, implanted tumor tissue (FACS); set-up: species or system rat
Description: as §4
A rat tumor model, which consisted of intracranially implanted RG2 cells (rat glioma cell line) in Wistar rats, was employed to investigate whether any of several potassium channel activators induce selective apoptosis of tumor cells in vivo.
The techniques for RG2 cell propagation and maintenance in tissue culture have been described (Sugita, M. and Black, K. L., Cyclic GMP-specific phosphodiesterase inhibition and intracarotid bradykinin infusion enhances permeability into brain tumors, Cancer Res. 58(5):914–20 [1998]; Inamura et al. [1994]; Nakano, S. et al., Increased brain tumor microvessel permeability after intracarotid bradykinin infusion is mediated by nitric oxide, Cancer Res. 56(17):4027–31 [1996]). Briefly, RG2 cells derived from a rat glioma are kept frozen until use, then are thawed and maintained in a monolayer culture in F12 medium with 10% calf serum.
The Wistar rats (approximately 140–160 g body weight) were anesthetized with intra-peritoneal ketamine (50 mg/kg), and glial cells (1×10^5) were implanted into the right hemisphere, but not the contralateral hemisphere, by intracerebral injection suspended in 5 μL F12 medium (1–2% methylcellulose) by a Hamilton syringe. The implantation coordinates were 3-mm lateral to the bregma and 4.5 mm deep to the dural surface. […]

[15] = tested on: PTK activity in RG2 cell lysate; test: Protein tyrosine kinase (PTK) assay; assay type: biochemical, rat; conditions: 1–50 μM (FIG. 10)
Method: A PTK assay kit (The Oncogene Research Products, Boston, Mass.) was used to determine the presence and relative amounts of protein kinase activity in tissue cytosols and cell extracts. Briefly, 1×10^4 RG2 cells seeded in a 50-mL culture flask, and allowed to achieve confluency to form a monolayer at 37° C. in a CO2 incubator.
Briefly, RG2 cells were harvested after trypsinization, and cells were pelleted by centrifugation. Cells were resuspended with extraction buffer (20 mM Tris, pH 7.4, 50 mM NaCl, 1 mM EDTA, 1 mM EGTA, 0.2 mM PMSF, 1 μg/mL pepstatin, 0.5 μg/mL leupetin, 0.2 mM Na3VO4, 5 mM mercaptoethanol, 0.1% Triton X-100), and cells were lysed using a cell homogenizer. After centrifugation, supernatant was separated from the pellet for PTK assay. The supernatant was treated with superoxide dismutase. Pervanadate (100 mM) was used in the PTK assay to inhibit […] activity, and protein concentration was determined by Lowry's method using a Bio-Rad protein assay kit. […]
Assay for PTK activity in RG2 cell-lysates was then performed according to the protocol supplied by the PTK assay kit's manufacturer. After adding the stop solution, absorbance measured in each well at 450 nm using a Spectramax Plus (Molecular Devices, Sunnyvale, Calif.).

[16] = Solubility in water; assay type: physicochemical
Description: The skilled practitioner is cautious in regulating the final concentration of solvent in the infusion solution to avoid solvent-related toxicity. For example, a final ethanol concentration in an infusion solution up to 5–10% (v/v) is tolerated by most mammalian subjects with negligible toxicity.

[17] = RG2 tumor, 50 μg/kg body mass, two consecutive daily doses, intracarotid (FIG. 8C)
[18] = RG2 tumor, 100 μg/kg body mass, three consecutive daily bolus doses (FIG. 9C)
[19] = RG2 tumor, 100 μg/kg body mass/day for two days, another rat (FIG. 8G)
[20] = RG2 tumor, 100 μg/kg body mass/day for two days, one rat (FIG. 8E)

With O=c1[nH]c2cc(C(F)(F)F)ccc2n1-c1cc(C(F)(F)F)ccc1O [NS-1619, 1,3-dihydro-1-[2-hydroxy-5-(trifluoromethyl)phenyl]-5-(trifluoromethyl)-2H-benzimidazol-2-one] the cell proliferation [1] was “significantly blocks cell proliferation”, the cell proliferation [2] was “significantly blocks cell proliferation” and the cell death ([3]; 50 μg/mL (FIG. 3)) was 70%. For the same molecule, the cell proliferation ([3]; 1–100 μg/mL, 4 hours, dose-dependent (FIG. 1)) was “significantly blocks cell proliferation”, the “sensitivity (cell death)” value ([4]; HBMVEC, 50 μg/mL (FIG. 4)) was “insensitive” and the cell proliferation ([4]; normal HBMVEC, 1–100 μg/mL, 4 hours (FIG. 2)) was “without affecting”. The “sensitivity (cell death)” value ([5]; HFA, 50 μg/mL (FIG. 4)) was “insensitive”, the cell proliferation ([5]; normal HFA, 1–100 μg/mL, 4 hours (FIG. 2)) was “without affecting” and the cell death ([6]; 50 μg/mL (FIG. 4)) was 90%. The cell proliferation ([6]; 1–100 μg/mL, 4 hours, dose-dependent (FIG. 2)) was “significantly blocked cell proliferation”, the cell proliferation [7] was “significantly blocked cell proliferation” and the apoptotic cells [8] was 21%. The necrotic cells [8] was 14%, the apoptotic cells [9] was 42% and the necrotic cells [9] was 32%. It also gave an apoptotic cells [10] of 25%, a necrotic cells [10] of 35% and an apoptosis [11] of 29%. The necrosis [11] was 29%, the apoptosis [12] was 24% and the necrosis [12] was 49%. For the same molecule, the apoptosis [13] was 4%, the induction of necrosis [13] was “did not significantly induce” and the apoptotic cells [14, 17] was 28%. For the same molecule, the necrotic cells [14, 17] was 24%, the apoptosis [14, 18] was 55% and the necrosis [14, 18] was 9%. The apoptosis [14, 19] was 34%, the necrosis [14, 19] was 9% and the apoptosis [14, 20] was 44%. The necrosis [14, 20] was 15%, the “cell death in tumor tissue” value ([14]; infusion for two or three consecutive days at up to 100 μg/kg body mass) was “inducing a selective cell death in tumor tissue” and the PTK activity [15] was “did not significantly affect PTK activity”. For the same molecule, the solubility in water [16] was “not easily dissolved in water”.
With CC(C)[C@@H]1NC(=O)[C@H](C)OC(=O)[C@@H](C(C)C)NC(=O)[C@@H](C(C)C)OC(=O)[C@H](C(C)C)NC(=O)[C@H](C)OC(=O)[C@@H](C(C)C)NC(=O)[C@@H](C(C)C)OC(=O)[C@H](C(C)C)NC(=O)[C@H](C)OC(=O)[C@@H](C(C)C)NC(=O)[C@@H](C(C)C)OC1=O [Valinomycin] the PTK activity [15] was “inhibited PTK activity in RG2 cell lysate in a dose-dependent manner”.
